In patent US12484581B2, “Agricultural or horticultural insecticide or animal ectoparasite or endoparasite control agent each comprising a condensed heterocyclic compound having a substituted cyclopropane-oxadiazole group or a salt thereof as active ingredient, and method for using the insecticide or the control agent” (NIHON NOHYAKU CO., LTD., priority 2019, dated 2025):

Tests used:
Format in all cases: in vivo
Laodelphax striatellus = assay: whole plant or invertebrate; conditions: 192 h, rice seedlings dipped 30 seconds, 3rd-instar larvae, 8 days after inoculation, criteria of Test Example 1, read-out: insecticidal efficacy (corrected mortality rate)
Plutella xylostella = assay: whole plant or invertebrate; conditions: 144 h, Chinese cabbage seedlings with laid eggs dipped about 30 seconds, 6 days after dip treatment, criteria of Test Example 1, read-out: insecticidal efficacy (corrected mortality rate)
Haemonchus contortus = assay: Larval motility assay on Haemonchus contortus; conditions: 96 h, L1 stage larvae, 4 days, relative to DMSO only, read-out: percent motility inhibition
Procedure: Larval Motility Assay on Haemonchus contortus
DMSO diluted solutions of various compounds of the present invention were added at the final concentration of 50 ppm to the wells of a 96-well plate containing a predetermined conditioned medium. Twenty L1 stage larvae of H. contortus were introduced into each well of the 96-well plate. The plate was allowed to stand for 4 days, and then larval motility was examined. The percent motility inhibition in the wells of each treatment was calculated relative to the wells of treatment with DMSO only.

Dirofilaria immitis = assay: Larval motility assay on Dirofilaria immitis; conditions: 72 h, L1 stage larvae, 3 days, relative to DMSO only, read-out: percent motility inhibition
Procedure: Larval Motility Assay on Dirofilaria immitis
Five hundred L1 stage larvae of D. immitis were diluted in a predetermined conditioned medium and introduced into each well of a 96-well plate. DMSO diluted solutions of various compounds of the present invention were added at the final concentration of 50 ppm to the wells of the 96-well plate. The plate was allowed to stand for 3 days, and then larval motility was examined. The percent motility inhibition in the wells of each treatment was calculated relative to the wells of treatment with DMSO only.

Ctenocephalides felis = assay: whole plant or invertebrate; conditions: 50 ppm in bovine blood, oral via feeder, adults, following day, read-out: mortality rate
Rhipicephalus sanguineus = assay: Assay for transdermal parasiticidal activity against nymphs of Rhipicephalus sanguineus; conditions: 100 ppm applied to inside of sample bottles, two days later
Excerpt: DMSO diluted solutions of various compounds of the present invention were individually diluted to the final concentration of 100 ppm with an acetone/triton mixture and applied to the inside of vented sample bottles. After overnight drying, ten nymphs of R. sanguineus were introduced into each bottle, and the mortality rate was examined two days later. Aberrant adults were regarded as the dead.

Structure (SMILES) | mortality at 500 ppm (Laodelphax striatellus) [%] | mortality at 500 ppm (Plutella xylostella) [%] | inhibition at 50 ppm (Haemonchus contortus) [%] | inhibition at 50 ppm (Dirofilaria immitis) [%] | mortality at 50 ppm (Ctenocephalides felis) [%] | parasiticidal activity (mortality rate) (Rhipicephalus sanguineus)
CCS(=O)(=O)c1cc(-c2noc(C3(C(F)(F)F)CC3)n2)cnc1-c1nc2cc([S+]([O-])C(F)(F)F)ccc2n1C (stereo not drawn) [Compound 1-8] | 100 | 100 | – | – | – | –
CCS(=O)(=O)c1cc(-c2noc(C3(C(F)(F)F)CC3)n2)cnc1-c1nc2cc(C(F)(F)F)ncc2n1C [Compound 1-7] | 100 | 100 | ≥ 50 | ≥ 50 | ≥ 50 | –
CCS(=O)(=O)c1cc(-c2noc(C3CC3C)n2)cnc1-c1nc2cc(C(F)(F)F)cnc2n1C (stereo not drawn) [Compound 1-6, 3-(5-ethylsulfonyl-6-(3-methyl-6-trifluoromethyl-3H-imidazo[4,5-b]pyridin-2-yl)pyridin-3-yl)-5-(2-methylcyclopropyl)-1,2,4-oxadiazole] | 100 | 100 | ≥ 50 | ≥ 50 | – | –
CCS(=O)(=O)c1cc(-c2noc(C3(C(F)(F)F)CC3)n2)cnc1-c1nc2cc(C(F)(F)F)cnc2n1C [Compound 1-4, 3-(5-ethylsulfonyl-6-(3-methyl-6-trifluoromethyl-3H-imidazo [4,5-b]pyridin-2-yl)pyridin-3-yl)-5-(1-trifluoromethylcyclopropyl)-1,2,4-oxadiazole] | 100 | 100 | ≥ 50 | ≥ 50 | ≥ 50 | parasiticidal activity
CCS(=O)(=O)c1cc(-c2noc(C3(C)CC3)n2)cnc1-c1nc2cc(C(F)(F)F)cnc2n1C [Compound 1-2] | 100 | 100 | ≥ 50 | ≥ 50 | ≥ 50 | –
CCS(=O)(=O)c1cc(-c2noc(C3(c4ccccc4)CC3)n2)cnc1-c1nc2cc(C(F)(F)F)cnc2n1C [Compound 1-5] | 100 | 100 | ≥ 50 | ≥ 50 | – | parasiticidal activity
